Test results: article PMC10878397, “Development of Potent Dual BET/HDAC Inhibitors via Pharmacophore Merging and Structure-Guided Optimization” (ACS Chemical Biology, 2024)
Where two headings read alike, the source gives them in different places.

Columns and labels:
BRD4 BD1 = BRD4 BD1 (Homo sapiens, UniProt O60885); assay: Isothermal titration calorimetry; type: binding; parameters: BRD4 BD1 (residues N44-E168) for structural studies was subcloned in the pNIC28-Bsa4 vector; His6 (followed by a TEV site) (N, cleaved yes); made in house; host or cells: Escherichia coli BL21(D3)-R3-pRARE2 Rosetta; settings: for ITC -TΔS / ITC Ka / ITC n (stoichiometry) / ITC ΔG / ITC ΔH / ITC ΔS / Kd: 15 °C
Method: ITC measurements were performed using a Nano ITC microcalorimeter (TA Instruments, New Castle, Pennsylvania). For all experiments, reverse titration was performed (syringe containing the protein solution; cell containing the ligand) in ITC buffer containing 25 mM HEPES, pH 7.5, 150 mM NaCl, 0.5 mM TCEP, and 5% glycerol. All compounds were diluted from 50 mM DMSO stocks to 20 μΜ in ITC buffer, and BRD4-BD1 was diluted to 120 μΜ in a DMSO-adjusted ITC buffer. BRD4-BD1 (120 μΜ) was titrated into the compound solution (20 μΜ) with an initial injection (4 μL) followed by 29 identical injections (8 μL), at a rate of 0.5 μL/s and with 150 or 200 s intervals. All experiments were performed at 15 °C while stirring at 350 rpm. The heat of dilution was determined by independent titrations (protein into buffer) and subtracted from the experimental raw data. Data were processed using NanoAnalyze software (version 3.10.0) provided by the instrument manufacturer. The first injection was excluded from the analysis, and fitted curves were generated by applying the independent model (single binding site) to the raw data. Complete thermodynamic data analysis can be found in Table S2.

[1] = tested on: zinc-dependent HDACs (HDAC1–11); assay: HDAC selectivity profile, whole panel; type: biochemical, human; settings: 1 and 10 μM
Method: (§1) The reactions were performed by Reaction Biology using a protease-coupled assay with fluorogenic substrates where, after deacetylation by the HDAC and subsequent proteolytic digest, the free fluorophore 7-amino-4-methyl coumarin (AMC) can be quantified.[60] The following substrates were used for activity assays: HDACs 1, 2, 3, and 6: fluorogenic tetrapeptide from p53 residues 379–382 (RHKK(Ac) AMC); HDACs 4, 5, 7, 9, and 11: fluorogenic HDAC class2a substrate (trifluoroacetyl lysine); HDAC8: twice acetylated fluorogenic tetrapeptide from p53 residues 379–382 (RHK(Ac) K(Ac) AMC); HDAC10: Ac-spermidine-AMC. Data are given as % residual activity compared with the uninhibited control reaction.

HDAC7 = molecular target: T1, HDAC7 (Homo sapiens, UniProt Q8WUI4); assay: HDAC selectivity profile (Reaction Biology); type: biochemical; settings: no inhibitor control as 100%, read-out: % Enzyme activity HDAC7
T1 construct: purchased Reaction Biology
T1 sequence (Q8WUI4 whole entry): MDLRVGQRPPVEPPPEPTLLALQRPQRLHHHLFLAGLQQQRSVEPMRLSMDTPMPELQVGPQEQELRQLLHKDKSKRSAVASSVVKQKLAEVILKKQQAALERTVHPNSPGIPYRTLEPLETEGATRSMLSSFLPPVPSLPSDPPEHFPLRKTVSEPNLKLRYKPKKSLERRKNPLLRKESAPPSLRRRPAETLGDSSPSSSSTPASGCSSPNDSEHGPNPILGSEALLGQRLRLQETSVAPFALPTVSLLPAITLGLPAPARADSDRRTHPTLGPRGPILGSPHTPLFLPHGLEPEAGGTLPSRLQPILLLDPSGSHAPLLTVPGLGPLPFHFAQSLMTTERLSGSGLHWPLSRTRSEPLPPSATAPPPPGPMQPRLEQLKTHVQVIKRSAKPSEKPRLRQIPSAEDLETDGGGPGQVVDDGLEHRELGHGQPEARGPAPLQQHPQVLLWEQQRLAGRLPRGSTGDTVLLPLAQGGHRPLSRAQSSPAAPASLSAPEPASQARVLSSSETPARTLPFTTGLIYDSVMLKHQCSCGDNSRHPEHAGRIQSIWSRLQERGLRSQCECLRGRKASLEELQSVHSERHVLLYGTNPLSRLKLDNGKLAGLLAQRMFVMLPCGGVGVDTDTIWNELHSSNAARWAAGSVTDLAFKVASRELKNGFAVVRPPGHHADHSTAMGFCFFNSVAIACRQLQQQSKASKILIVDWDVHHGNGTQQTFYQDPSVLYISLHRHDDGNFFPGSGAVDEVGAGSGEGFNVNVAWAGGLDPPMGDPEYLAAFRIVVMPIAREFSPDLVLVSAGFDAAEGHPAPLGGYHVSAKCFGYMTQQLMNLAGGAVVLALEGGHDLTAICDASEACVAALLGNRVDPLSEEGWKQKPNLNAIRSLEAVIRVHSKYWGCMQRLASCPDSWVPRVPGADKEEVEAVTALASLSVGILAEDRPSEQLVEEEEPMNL
Method: as §1

HDAC9 = molecular target: T2, HDAC9 (Homo sapiens, UniProt Q9UKV0); assay: HDAC selectivity profile (Reaction Biology); type: biochemical; settings: no inhibitor control as 100%, read-out: % Enzyme activity HDAC9
T2 construct: purchased Reaction Biology
Method: as §1

HDAC5 = molecular target: T3, HDAC5 (Homo sapiens, UniProt Q9UQL6); assay: HDAC selectivity profile (Reaction Biology); type: biochemical; settings: no inhibitor control as 100%, read-out: % Enzyme activity HDAC5
T3 construct: purchased Reaction Biology
T3 sequence (Q9UQL6 whole entry): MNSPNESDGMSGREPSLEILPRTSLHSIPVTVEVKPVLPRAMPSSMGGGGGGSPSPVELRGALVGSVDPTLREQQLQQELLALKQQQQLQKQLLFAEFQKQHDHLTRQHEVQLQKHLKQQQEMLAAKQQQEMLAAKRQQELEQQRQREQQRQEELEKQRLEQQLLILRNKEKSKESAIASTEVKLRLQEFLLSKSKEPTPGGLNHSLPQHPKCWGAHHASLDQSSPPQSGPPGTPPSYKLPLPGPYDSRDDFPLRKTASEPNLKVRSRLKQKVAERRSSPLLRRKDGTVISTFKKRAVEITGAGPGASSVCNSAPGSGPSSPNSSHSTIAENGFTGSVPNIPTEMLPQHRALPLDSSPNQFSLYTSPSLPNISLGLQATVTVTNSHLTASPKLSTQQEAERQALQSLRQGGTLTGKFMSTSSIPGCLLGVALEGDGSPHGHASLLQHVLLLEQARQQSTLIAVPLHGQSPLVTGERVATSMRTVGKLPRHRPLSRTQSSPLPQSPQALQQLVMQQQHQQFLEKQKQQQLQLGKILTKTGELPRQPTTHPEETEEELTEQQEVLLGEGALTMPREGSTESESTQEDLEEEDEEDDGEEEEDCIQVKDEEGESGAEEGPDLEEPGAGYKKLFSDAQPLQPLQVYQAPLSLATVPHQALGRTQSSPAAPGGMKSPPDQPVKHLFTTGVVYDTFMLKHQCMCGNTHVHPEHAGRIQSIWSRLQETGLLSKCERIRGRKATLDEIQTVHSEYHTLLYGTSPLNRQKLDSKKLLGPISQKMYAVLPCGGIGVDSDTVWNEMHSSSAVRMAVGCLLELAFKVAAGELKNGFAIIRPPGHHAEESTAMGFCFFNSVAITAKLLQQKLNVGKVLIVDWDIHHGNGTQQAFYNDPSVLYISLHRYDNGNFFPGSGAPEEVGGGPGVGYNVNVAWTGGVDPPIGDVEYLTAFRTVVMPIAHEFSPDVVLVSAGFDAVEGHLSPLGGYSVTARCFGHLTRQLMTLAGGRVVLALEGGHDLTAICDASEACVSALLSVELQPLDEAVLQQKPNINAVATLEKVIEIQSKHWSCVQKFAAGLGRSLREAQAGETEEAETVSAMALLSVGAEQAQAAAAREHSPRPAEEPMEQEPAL
Method: as §1

HDAC10 = molecular target: T4, HDAC10 (Homo sapiens, UniProt Q969S8); assay: HDAC selectivity profile (Reaction Biology); type: biochemical; settings: no inhibitor control as 100%, read-out: % Enzyme activity HDAC10
T4 construct: purchased Reaction Biology
T4 sequence (Q969S8 whole entry): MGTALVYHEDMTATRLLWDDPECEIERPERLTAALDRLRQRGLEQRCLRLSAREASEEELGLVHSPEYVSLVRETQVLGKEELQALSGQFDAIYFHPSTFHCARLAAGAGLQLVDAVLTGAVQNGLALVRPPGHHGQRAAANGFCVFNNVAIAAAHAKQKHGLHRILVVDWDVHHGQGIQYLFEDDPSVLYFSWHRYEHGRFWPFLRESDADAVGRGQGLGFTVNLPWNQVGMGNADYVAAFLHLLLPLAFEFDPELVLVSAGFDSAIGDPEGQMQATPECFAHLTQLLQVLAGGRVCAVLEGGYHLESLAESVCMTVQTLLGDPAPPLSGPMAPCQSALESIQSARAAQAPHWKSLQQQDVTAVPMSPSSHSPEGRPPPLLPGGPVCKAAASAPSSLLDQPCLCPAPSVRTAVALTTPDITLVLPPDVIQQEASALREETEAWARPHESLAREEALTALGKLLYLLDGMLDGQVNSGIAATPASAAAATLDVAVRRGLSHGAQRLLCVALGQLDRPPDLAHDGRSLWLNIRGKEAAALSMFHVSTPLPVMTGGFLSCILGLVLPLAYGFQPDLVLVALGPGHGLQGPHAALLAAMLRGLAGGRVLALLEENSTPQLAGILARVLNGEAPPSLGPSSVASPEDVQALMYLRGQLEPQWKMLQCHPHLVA
Method: as §1

HDAC8 = molecular target: T5, HDAC8 (Homo sapiens, UniProt Q9BY41); assay: HDAC selectivity profile (Reaction Biology); type: biochemical; settings: no inhibitor control as 100%, read-out: % Enzyme activity HDAC8
T5 construct: purchased Reaction Biology
T5 sequence (Q9BY41 whole entry): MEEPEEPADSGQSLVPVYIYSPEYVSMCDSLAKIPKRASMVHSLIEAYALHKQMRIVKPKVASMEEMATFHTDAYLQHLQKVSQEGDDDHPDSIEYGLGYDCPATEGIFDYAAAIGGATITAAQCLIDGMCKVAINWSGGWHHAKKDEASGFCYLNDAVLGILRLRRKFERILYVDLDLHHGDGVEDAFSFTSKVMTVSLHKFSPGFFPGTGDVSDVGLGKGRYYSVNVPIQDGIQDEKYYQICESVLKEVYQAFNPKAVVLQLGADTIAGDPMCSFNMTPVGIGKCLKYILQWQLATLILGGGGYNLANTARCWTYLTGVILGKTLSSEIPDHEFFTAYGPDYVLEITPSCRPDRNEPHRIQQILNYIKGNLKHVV
Method: as §1

HDAC1 = HDAC1 (Homo sapiens, UniProt Q13547); assay: HDAC selectivity profile (Reaction Biology); type: biochemical; parameters: purchased Reaction Biology; settings: no inhibitor control as 100%, read-out: % Enzyme activity HDAC1
HDAC1, sequence (Q13547 whole entry): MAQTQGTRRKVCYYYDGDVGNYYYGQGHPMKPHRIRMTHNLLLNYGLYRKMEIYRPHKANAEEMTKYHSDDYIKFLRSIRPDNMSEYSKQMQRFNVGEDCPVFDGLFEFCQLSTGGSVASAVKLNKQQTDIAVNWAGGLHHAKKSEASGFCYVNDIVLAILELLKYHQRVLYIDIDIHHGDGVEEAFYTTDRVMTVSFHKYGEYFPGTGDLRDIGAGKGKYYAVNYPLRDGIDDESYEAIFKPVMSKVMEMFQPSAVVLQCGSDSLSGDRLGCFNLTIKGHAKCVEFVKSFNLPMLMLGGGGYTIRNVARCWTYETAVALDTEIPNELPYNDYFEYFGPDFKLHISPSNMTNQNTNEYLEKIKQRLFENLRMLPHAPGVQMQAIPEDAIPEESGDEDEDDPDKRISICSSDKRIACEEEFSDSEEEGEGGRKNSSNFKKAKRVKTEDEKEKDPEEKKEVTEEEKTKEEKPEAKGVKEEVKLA
Method: as §1

HDAC2 = HDAC2 (Homo sapiens, UniProt Q92769); assay: HDAC selectivity profile (Reaction Biology); type: biochemical; parameters: purchased Reaction Biology; settings: no inhibitor control as 100%, read-out: % Enzyme activity HDAC2
HDAC2, sequence (Q92769 whole entry): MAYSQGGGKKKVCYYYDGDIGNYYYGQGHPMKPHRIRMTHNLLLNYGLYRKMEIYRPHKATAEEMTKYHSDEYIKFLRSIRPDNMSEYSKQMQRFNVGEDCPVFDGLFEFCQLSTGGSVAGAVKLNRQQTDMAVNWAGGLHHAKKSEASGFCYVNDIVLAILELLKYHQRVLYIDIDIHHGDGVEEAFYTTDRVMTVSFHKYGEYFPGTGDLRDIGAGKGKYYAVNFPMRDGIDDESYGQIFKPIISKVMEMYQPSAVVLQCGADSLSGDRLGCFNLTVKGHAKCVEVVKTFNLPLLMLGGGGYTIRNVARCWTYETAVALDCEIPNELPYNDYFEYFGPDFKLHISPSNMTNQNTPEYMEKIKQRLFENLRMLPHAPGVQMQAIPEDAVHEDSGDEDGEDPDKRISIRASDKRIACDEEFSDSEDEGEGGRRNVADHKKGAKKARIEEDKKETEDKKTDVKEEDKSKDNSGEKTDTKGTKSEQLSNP
Method: as §1

HDAC3 = HDAC3 (Homo sapiens, UniProt O15379); assay: HDAC selectivity profile (Reaction Biology); type: biochemical; parameters: purchased Reaction Biology; settings: no inhibitor control as 100%
HDAC3, sequence (O15379 whole entry): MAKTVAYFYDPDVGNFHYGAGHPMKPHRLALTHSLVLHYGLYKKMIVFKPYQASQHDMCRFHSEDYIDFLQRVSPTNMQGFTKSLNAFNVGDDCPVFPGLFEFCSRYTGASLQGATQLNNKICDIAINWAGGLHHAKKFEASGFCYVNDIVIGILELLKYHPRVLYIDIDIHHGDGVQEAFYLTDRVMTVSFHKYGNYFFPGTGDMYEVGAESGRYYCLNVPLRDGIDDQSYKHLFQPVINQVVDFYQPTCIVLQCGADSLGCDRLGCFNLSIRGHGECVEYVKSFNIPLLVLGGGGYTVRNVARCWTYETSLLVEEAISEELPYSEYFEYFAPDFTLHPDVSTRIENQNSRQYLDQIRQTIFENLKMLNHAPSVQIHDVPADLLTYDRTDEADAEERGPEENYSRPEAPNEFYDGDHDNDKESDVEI
HDAC3, sequence (Q9Y618 395-489 partner limits assumed): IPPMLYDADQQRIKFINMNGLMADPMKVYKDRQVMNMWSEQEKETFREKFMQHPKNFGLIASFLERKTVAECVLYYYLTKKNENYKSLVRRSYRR
Method: as §1

[2] = tested on: HEXIM1 mRNA in PaTu8988T cells; assay: Quantitative RT-PCR of BET-inhibition biomarker; type: cell-based; settings: 6 h, 1 μΜ compound
Method: Total RNA was extracted from cell culture using the Maxwell RSC simply RNA Cells Kit (Promega) according to the manufacturer’s protocol. cDNA was synthesized using PrimeScript Reverse Transcriptase (TakaRa) and amplified using homemade PCR master mix. The amplicon was detected by EvaGreen Dye using a LightCycler 480 instrument (Roche). PCR conditions were 5 min at 95 °C, followed by 45 cycles of 95 °C for 10 s, 59 °C for 10 s, and 72 °C for 20 s. The relative gene expression levels were normalized to GUSB and calculated using the 2^–ΔΔC^t method.

panel of 32 bromodomains = assay: DSF selectivity screen, whole panel; type: binding; settings: 10 μM compound
Method: The effects of inhibitor binding on the apparent melting temperature of recombinant bromodomains were determined by DSF in a 96-well plate (Starlab) at a protein concentration of 2 μM with 10 μΜ compound in buffer containing 25 mM HEPES, pH 7.5, 150 mM NaCl, and 0.5 mM TCEP. […] Protein unfolding profiles were recorded using an MX3005P real-time qPCR instrument (Agilent; excitation/emission filters = 492/610 nm) while increasing the temperature from 25 to 95 °C at a heating rate of 3 °C/min. Tm values were calculated after fitting the fluorescence curves to the Boltzmann equation. Differences in melting temperature upon compound binding are given as ΔTm = Tm (protein with inhibitor) – Tm (protein with DMSO control). Measurements were performed in triplicates.

[3] = 95% confidence level, read-out: ITC Kd

SMILES: Cn1cc(-c2ccc(C(=O)Nc3ccccc3N)nc2)c2cc[nH]c2c1=O [NB500]
- fold increased binding affinity to BRD4 BD1 in ITC vs NB462 (BRD4 BD1): 3 fold
- ITC -TΔS (BRD4 BD1): -1.832 kcal/mol
- ITC Ka (BRD4 BD1): 2.18E+07 Mˉ¹
- ITC n (stoichiometry) (BRD4 BD1): 1.003 ± 0.022
- ITC ΔG (BRD4 BD1): -9.676 kcal/mol
- ITC ΔH (BRD4 BD1): -7.844 ± 0.360 kcal/mol
- ITC ΔS (BRD4 BD1): 6.358 cal/mol·K
- Kd (BRD4 BD1; [3]): 45.8 nM
- Kd (BRD4 BD1; read-out: ITC Kd BRD4 BD1): 46 nM

SMILES: Cn1cc(-c2ccc(C(=O)Nc3cc(-c4ccccc4)ccc3N)nc2)c2cc[nH]c2c1=O [NB512]
- selectivity among zinc-dependent HDACs [1]: high selectivity for HDAC1/2
- remaining activity at 1 µM (HDAC7; 1 µM NB512): 101%
- remaining activity at 10 µM (HDAC7; 10 µM NB512): 101%
- remaining activity at 1 µM (HDAC9; 1 µM NB512): 96.2%
- remaining activity at 10 µM (HDAC9; 10 µM NB512): 85%
- remaining activity at 1 µM (HDAC5; 1 µM NB512): 89.3%
- remaining activity at 10 µM (HDAC5; 10 µM NB512): 84.1%
- remaining activity at 1 µM (HDAC10; 1 µM NB512): 98.1%
- remaining activity at 10 µM (HDAC10; 10 µM NB512): 98.6%
- remaining activity at 1 µM (HDAC8; 1 µM NB512): 96.4%
- remaining activity at 10 µM (HDAC8; 10 µM NB512): 97.9%
- remaining activity at 1 µM (HDAC1; 1 µM NB512): 20.6%
- remaining activity at 10 µM (HDAC1; 10 µM NB512): 10.3%
- remaining activity at 1 µM (HDAC2; 1 µM NB512): 50.3%
- remaining activity at 10 µM (HDAC2; 10 µM NB512): 13.5%
- remaining activity at 1 µM (HDAC3; 1 µM NB512, read-out: % Enzyme activity HDAC3): 95.5%
- % Enzyme activity HDAC3 (HDAC3; 10 µM NB512): 76%
- remaining activity at 10 µM (HDAC3; 10 µM NB512, read-out: % Enzyme activity HDAC3): 76.4%

SMILES: Cn1cc(-c2ccc(C(=O)Nc3cc(-c4ccccc4)ccc3N)cc2)c2cc[nH]c2c1=O [NB503]
- HEXIM1 mRNA levels [2]: strongest effect
- bromodomain selectivity in DSF screen (panel of 32 bromodomains): high selectivity for BET bromodomains

SMILES: Cn1cc(-c2ccc(C(=O)Nc3ccccc3N)cc2)c2cc[nH]c2c1=O [NB462]
- bromodomain selectivity in DSF screen (panel of 32 bromodomains): BRD7 and BRD9 as prominent off-targets
- ITC -TΔS (BRD4 BD1): 1.371 kcal/mol
- ITC Ka (BRD4 BD1): 6.58E+06 Mˉ¹
- ITC n (stoichiometry) (BRD4 BD1): 0.996 ± 0.029
- ITC ΔG (BRD4 BD1): -8.99 kcal/mol
- ITC ΔH (BRD4 BD1): -10.36 ± 0.501 kcal/mol
- ITC ΔS (BRD4 BD1): -4.759 cal/mol·K
- Kd (BRD4 BD1; [3]): 152 nM
